pIC50: −log10 of the molar value. Where two headings read alike, the source gives them in different places.
Experiments:
Type in all cases: cell-based
Aβ-38 = assay: MSD Human (6E10) Ab 3-PLEX elisa, conditioned media of 2B7 cells: Aβ-38; conditions: Aβ-38 (superscript a)
Procedure, shortened: (§1)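 Read-out is MSD electrochemiluminescence of secreted Aβ peptides in 2B7 conditioned media after 5 hours of compound exposure at 37° C in 1% DMSO. Concentrations come from seven-point standard curves, and IC50 values from 4-parameter fits of percent vehicle.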

Aβ-40 = assay: MSD Human (6E10) Ab 3-PLEX elisa, conditioned media of 2B7 cells: Aβ-40; conditions: for pIC50: Aβ-40 (superscript b)
Procedure, shortened: as §1

Aβ-42 = assay: MSD Human (6E10) Ab 3-PLEX elisa, conditioned media of 2B7 cells: Aβ-42; conditions: for pIC50: Aβ-42 (superscript c); for % Inh. (range): Aβ-42, 20 μM
Procedure, shortened: as §1

[1] = Homo sapiens, read-out: 50% reduction value
[2] = Homo sapiens, read-out: IC50 range

SMILES | pIC50 (Aβ-38; read-out: 50% reduction value) | pIC50 (Aβ-38; read-out: IC50 range) | pIC50 (Aβ-40; read-out: 50% reduction value) | pIC50 (Aβ-42; read-out: 50% reduction value) | pIC50 (Aβ-38; [1]) | pIC50 (Aβ-42; [1]) | other results
CC(=O)N(Cc1cc(F)cc(F)c1)CC1CC(C)C2C(O1)C(O)C1(C)C3CCC4C(C)(C)C(OC(=O)C5CNC5)CCC45CC35CCC21C (centres unmarked) [drawing 1215] | 5.00 to 6.00 | 5.00 to 6.00 | 5.00 to 6.00 | 5.00 to 6.00 |  |  | pIC50 (Aβ-40; read-out: IC50 range): 5.00 to 6.00; pIC50 (Aβ-42; read-out: IC50 range): 5.00 to 6.00
CC1CC(C(OC(=O)C2CCC2)C(C)(C)O)OC2C1C1(C)CCC34CC35CCC(O)C(C)(C)C5CCC4C1(C)C2O (centres unmarked) [drawing 1216] | 5.00 to 6.00 |  | 5.00 to 6.00 | > 6.00 |  |  | 
CC1CC(C(OC(=O)N(C)C)C(C)(C)O)OC2C1C1(C)CCC34CC35CCC(O)C(C)(C)C5CCC4C1(C)C2O (centres unmarked) [drawing 1217] | 5.00 to 6.00 |  |  |  |  |  | % Inh. (range) (Aβ-40; Aβ-40, 20 μM): E^b (20 μM) E^c (20 μM) (% inhibition of 25-75%); % Inh. (range) (Aβ-42): E^b (20 μM) E^c (20 μM) (% inhibition of 25-75%)
CC1CC(C(=O)C(C)(C)O)OC2C1C1(C)CCC34CC35CCC(O)C(C)(C)C5CCC4C1(C)C2O (centres unmarked) [drawing 1218] | 5.00 to 6.00 |  |  |  |  |  | % Inh. (range) (Aβ-40; Aβ-40, 20 μM): E (% inhibition of 25-75%); % Inh. (range) (Aβ-42): F (% inhibition of <25%)
CC1CC(C(OC(=O)C2CCC2)C(C)(C)O)OC2C1C1(C)CCC34CC35CCC(OC3CN(C6COC6)CCO3)C(C)(C)C5CCC4C1(C)C2O (centres unmarked) [drawing 1219] | > 6.00 | > 6.00 | > 6.00 | > 6.00 |  |  | 
CC(C)C(=O)OC(C1CC(C)C2C(O1)C(O)C1(C)C3CCC4C(C)(C)C(OC5CN(C6COC6)CCO5)CCC45CC35CCC21C)C(C)(C)O (centres unmarked) [drawing 1220] | > 6.00 | > 6.00 | 5.00 to 6.00 | > 6.00 |  |  | 
CC(=O)O[C@@H]([C@H]1C[C@@H](C)C2C(O1)C(=O)[C@@]1(C)[C@@H]3CC[C@H]4C(C)(C)[C@@H](O[C@@H]5OC[C@@H](O)[C@H](O)[C@H]5O)CC[C@@]45C[C@@]35CC[C@]21C)C(C)(C)O (some centres unmarked) [drawing 1230] |  |  |  |  | 5.00 to 6.00 | < 5.00 | pIC50 (Aβ-38; [2]): 5.00 to 6.00; pIC50 (Aβ-40; [1]): 5.00 to 6.00; pIC50 (Aβ-42; [2]): > 6.00
CC(=O)O[C@@H]([C@H]1C[C@@H](C)C2C(O1)[C@H](O)[C@@]1(C)[C@@H]3CC[C@H]4C(C)(C)[C@@H](O)CC[C@@]45C[C@@]35CC[C@]21C)C(C)(C)O (some centres unmarked) [drawing 1231] |  |  |  |  | 5.00 to 6.00 | 5.00 to 6.00 | inhibition at 20 µM (Aβ-40; Homo sapiens, Aβ-40, 20 μM): 25 to 75%
CCO[C@@H](C1C[C@@H](C)[C@H]2C(O1)[C@H](O)[C@@]1(C)C3CC[C@H]4C(C)(C)C(OC5CN(Cc6ccccc6)CCO5)CC[C@@]45C[C@@]35CC[C@]21C)C(C)(C)O (some centres unmarked) [drawing 1282] |  |  |  |  | 5.00 to 6.00 | 5.00 to 6.00 | pIC50 (Aβ-38; [2]): 5.00 to 6.00; pIC50 (Aβ-40; [1]): 5.00 to 6.00; pIC50 (Aβ-42; [2]): 5.00 to 6.00
CCO[C@@H](C1C[C@@H](C)[C@H]2C(O1)[C@H](O)[C@@]1(C)C3CC[C@H]4C(C)(C)C(OC(=O)NC5CCNC5=O)CC[C@@]45C[C@@]35CC[C@]21C)C(C)(C)O (some centres unmarked) [drawing 1289] |  |  |  |  | > 6.00 | > 6.00 | pIC50 (Aβ-40; read-out: IC50 range): 5.00 to 6.00; pIC50 (Aβ-40; [1]): 5.00 to 6.00; pIC50 (Aβ-42; [2]): > 6.00
CCO[C@@H](C1C[C@@H](C)[C@H]2C(O1)[C@H](O)[C@@]1(C)C3CC[C@H]4C(C)(C)C(OC(=O)NC5CCNC5=O)CC[C@@]45C[C@@]35CC[C@]21C)C(C)(C)O (some centres unmarked) [drawing 1290] | > 6.00 |  | 5.00 to 6.00 | > 6.00 |  |  | pIC50 (Aβ-38; [2]): > 6.00; pIC50 (Aβ-40; read-out: IC50 range): < 5.00; pIC50 (Aβ-42; read-out: IC50 range): > 6.00
CCO[C@@H](C1C[C@@H](C)[C@H]2C(O1)[C@H](O)[C@@]1(C)C3CC[C@H]4C(C)(C)C(OC5CN(Cc6ccccc6)CCO5)CC[C@@]45C[C@@]35CC[C@]21C)C(C)(C)O (some centres unmarked) [drawing 1307] |  | 5.00 to 6.00 | 5.00 to 6.00 |  |  |  | pIC50 (Aβ-42; read-out: IC50 range): 5.00 to 6.00

Source: patent US20110251379A1, “COMPOUNDS USEFUL FOR TREATING NEURODEGENERATIVE DISORDERS” (Satori Pharmaceuticals, Inc., priority 2010, published 2011)
